Tests used:
TAS2R38 [1] = molecular target: T1, TAS2R38 (Homo sapiens, UniProt P59533, A49P/I296V); experiment: Calcium imaging (FLIPR) of TAS2R38-PAV transfected HEK-293T G16gust44 cells, activation by compound alone; assay type: cell-based
T1 construct: expressed in transfected cells; host or cells: HEK-293T cells stably expressing the chimeric G-protein subunit G16gust44
T1 sequence (P59533 1-333 A49P/I296V): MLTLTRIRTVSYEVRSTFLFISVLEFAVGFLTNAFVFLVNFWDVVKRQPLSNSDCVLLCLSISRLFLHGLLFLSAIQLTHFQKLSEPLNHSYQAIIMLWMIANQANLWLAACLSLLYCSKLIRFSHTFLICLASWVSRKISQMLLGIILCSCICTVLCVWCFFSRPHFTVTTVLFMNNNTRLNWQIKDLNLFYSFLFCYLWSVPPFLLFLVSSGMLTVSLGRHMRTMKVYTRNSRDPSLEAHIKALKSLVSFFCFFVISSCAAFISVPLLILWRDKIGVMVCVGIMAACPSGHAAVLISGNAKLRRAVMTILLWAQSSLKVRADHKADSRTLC
Excerpt: (§1) Human TAS2R38 cDNAs encoding the PAV form of the receptor was fused with a plasma membrane-targeting sequence of the rat somatostatin type 3 receptor at the N terminus of the recombinant polypeptide and a herpes simplex virus glycoprotein D (HSV) epitope at its C terminus (Bufe B., et al. (2002) Nat Genet 32:397-401). The constructs were transiently transfected into human embryonic kidney (HEK)-293T cells that stably express the chimeric G-protein subunit G16gust44 (Ueda T., et al. (2003) J Neurosci 23:7376-7380) using Lipofectamine 2000 (Invitrogen). They were then seeded at a density of ˜20-30% and transfected at ˜60% confluency in 96-well microtiter plate (Greiner) coated with 10 μg/ml Poly-D-lysine (Sigma-Aldrich). Calcium imaging experiments using an automated fluorometric imaging plate reader (FLIPR) (Molecular Devices) have been performed 24-32 h later essentially as described previously (Bufe B., et al. (2005) Curr. Biol. 15, 322-327). Tastants (Sigma-Aldrich) were dissolved and administered in the following solution: 130 mM NaCl, 5 mM KCl, 10 mM HEPES, 2 mM CaCl2, and 10 mM glucose, pH 7.4. Data were averaged over several independent experiments and processed with SigmaPlot (SPSS). For calculation of dose-response curves, the peak fluorescence responses after addition of compounds were corrected for and normalized to background fluorescence (ΔF/F=(F−F0)/F0), and baseline noise was subtracted.
During the structure-function-analysis of TAS2R38 agonists we identified and tested various compounds that contain an N—C═S moiety, which is a hallmark of TAS2R38 agonists. […] Two other compounds, dimethylthiourea and mercaptobenzimidazole that also have an N—C═S moiety (FIG. 1) could activate the receptor only at low to concentrations (EC50 of 0.5 mM for dimethylthiourea and 1.0 μM for mercaptobenzimidazole). Application of dimethylthiourea in concentrations above 3 mM led to a dose dependant reduction of the signal amplitude (FIG. 2).

hTAS2R16 = molecular target: T2, hTAS2R16 (Homo sapiens, UniProt Q9NYV7); experiment: Calcium imaging of hTAS2R16 transfected cells stimulated with salicin, specificity test; assay type: cell-based; conditions: 10 mM DMTU, 5 mM DETU or 0.1 mM MBI, FIG. 4
T2 construct: expressed in transfected cells
T2 sequence (Q9NYV7 1-291): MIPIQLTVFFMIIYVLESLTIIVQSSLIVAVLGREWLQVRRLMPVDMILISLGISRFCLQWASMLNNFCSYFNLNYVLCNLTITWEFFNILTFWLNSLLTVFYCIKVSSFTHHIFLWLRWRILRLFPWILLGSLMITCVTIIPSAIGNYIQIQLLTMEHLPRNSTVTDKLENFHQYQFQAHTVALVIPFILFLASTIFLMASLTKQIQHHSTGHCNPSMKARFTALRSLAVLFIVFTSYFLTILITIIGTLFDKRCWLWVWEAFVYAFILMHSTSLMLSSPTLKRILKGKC
Excerpt: as §1
(§2) In contrast to the observed effects on TAS2R38, the response of cells expressing hTAS2R16 or mTas2r5 to their cognate ligands salicin or cycloheximide was not altered by any of the three TAS2R38 antagonists in concentrations that inhibited response of TAS2R38 (FIG. 4).

mTas2r5 = molecular target: T3, mTas2r5 (Mus musculus, UniProt Q9JKT4); experiment: Calcium imaging of mTas2r5 transfected cells stimulated with cycloheximide, specificity test; assay type: cell-based, murine; conditions: 10 mM DMTU, 5 mM DETU or 0.1 mM MBI, FIG. 4
T3 construct: expressed in transfected cells
T3 sequence (Q9JKT4 1-300): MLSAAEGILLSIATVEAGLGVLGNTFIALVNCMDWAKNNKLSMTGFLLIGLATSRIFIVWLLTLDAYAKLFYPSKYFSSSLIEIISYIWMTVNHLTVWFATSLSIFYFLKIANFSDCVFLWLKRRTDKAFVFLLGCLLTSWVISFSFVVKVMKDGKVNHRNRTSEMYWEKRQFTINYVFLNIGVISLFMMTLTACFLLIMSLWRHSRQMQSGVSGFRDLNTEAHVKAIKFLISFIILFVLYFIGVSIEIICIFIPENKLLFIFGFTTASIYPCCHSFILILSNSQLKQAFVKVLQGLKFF
Excerpt: as §1, §2

TAS2R38 [2] = molecular target: T1, TAS2R38; experiment: Calcium imaging (FLIPR) of TAS2R38 transfected cells, antagonists applied as mixture with TAS2R38 agonists; assay type: cell-based; conditions: for inhibition of the responses of TAS2R38 agonists: mixture with 0.03 mM PROP, 0.03 mM PTC or 1 mM MET, 20 mM DMTU, 5 mM DETU or 0.1 mM MBI, FIG. 3
Excerpt: as §1
To test whether dimethylthiourea, diethylthiourea and mercaptobenzimidazole are capable of inhibiting the response of other TAS2R38 agonists we next tested them as mixtures with the structurally divergent TAS2R38 agonists propylthiouracil, phenylthiourea and methimidazole.
To further investigate the mechanism of the inhibition of TAS2R38 we examined the effect of increasing diethylthiourea concentrations on the dose response curves of propylthiouracil and phenylthiourea (FIG. 5). […] Thus, the likeliest explanation for the observed right shift in the EC50 values caused by negative cooperativity of the inhibitor binding site on the agonist binding site of PROP and PTC.

[3] = TAS2R38-PAV transfected cells, compound alone, FIG. 2, read-out: EC50 (activation of the receptor)

SMILES | activation of the receptor (TAS2R38 [1]; TAS2R38-PAV transfected cells, compound alone, FIG. 2) | effect on response of hTAS2R16 expressing cells to salicin (hTAS2R16) | effect on response of mTas2r5 expressing cells to cycloheximide (mTas2r5) | effect on signal amplitudes of the agonists (TAS2R38 [2]; increasing diethylthiourea concentrations, not abolished by increasing agonist concentrations) | inhibition of the responses of TAS2R38 agonists (TAS2R38 [2]) | concentrations at which the compound acts as agonist of hTAS2R38 (TAS2R38 [1]) | EC50 (TAS2R38 [1]; [3]) | concentrations leading to a dose dependant reduction of the signal amplitude (TAS2R38 [1]; TAS2R38 expressing cells, compound alone, FIG. 2) | concentrations that pronouncedly reduced the response of TAS2R38 receptor expressing cells (TAS2R38 [1]; compound alone, FIG. 2) | EC50 (TAS2R38 [1]; EC50 (result obtained for propylthiouracil), alone, TAS2R38 transfected cells, FIG. 5) | EC50 (TAS2R38 [1]; EC50 of phenylthiourea, alone, TAS2R38 transfected cells, FIG. 5) | EC50 (TAS2R38 [2]; EC50 (result obtained for propylthiouracil), +0.25 mM diethylthiourea) | EC50 (TAS2R38 [2]; EC50 (result obtained for propylthiouracil), +0.5 mM diethylthiourea) | EC50 (TAS2R38 [2]; EC50 of phenylthiourea, +0.25 mM diethylthiourea) | EC50 (TAS2R38 [2]; EC50 of phenylthiourea, +0.5 mM diethylthiourea)
CCNC(=S)NCC [diethylthiourea, N,N′-diethylthiourea] | did not activate the receptor at any tested concentration | not altered | not altered | pronounced reduction of the signal amplitudes | inhibited the responses of all tested agonist | – | – | – | – | – | – | – | – | – | –
CNC(=S)NC [dimethylthiourea, N,N′-dimethylthiourea] | – | not altered | not altered | – | inhibited the responses of all tested agonist | below 3 mM | 500 µM | above 3 mM | – | – | – | – | – | – | –
Sc1nc2ccccc2[nH]1 [mercaptobenzimidazole, 2-mercaptobenzimidazole] | – | not altered | not altered | – | inhibited the responses of all tested agonist | below 0.01 mM | 1 µM | – | above 10 μM | – | – | – | – | – | –
NC(=S)Nc1ccccc1 [phenylthiourea, phenylthiocarbamide, reference compound] | – | – | – | – | – | – | – | – | – | 1.1 ± 0.8 µM | 1.4 ± 0.9 µM | 3.4 ± 2.5 µM | 6.3 ± 3.9 µM | 2.8 ± 0.8 µM | 4.8 ± 1.8 µM

Reference: patent US8158442B2, “Antagonists of bitter taste receptors and uses thereof” (Deutsches Institut Fuer Ernaehrungsforschung …, priority 2007, dated 2012)
